How the values were obtained:
Format in all cases: in vivo
ducksalad [1] = assay: Test Example 1: herbicidal effects in preemergence treatment under submerged conditions; details: dose 2.52 g/a
Summary of the method: (§1)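 Score 0–5 by mortality (5: ≥90%; 0: <5%), read 3 weeks post-application. Paddy-type cups: alluvial soil under 4 cm water, weeds seeded plus transplanted 2.5-leaf rice; diluted EC dosed onto water surface same day as sowing, g/a basis; greenhouse 25 to 30° C.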

bulrush [2] = assay: as above; details: dose 2.52 g/a
Summary of the method: as §1

barnyardgrass [3] = assay: as above; details: dose 2.52 g/a
Summary of the method: as §1

common ragweed [4] = assay: Test Example 4: herbicidal effect in foliage treatment; details: dose 6.3 g/a, three weeks after application
Summary of the method: (§2)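 14-day greenhouse-grown plants (25–30° C) sprayed on foliage with diluted EC; dose as g/a; effect graded after 3 weeks.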

common chickweed [5] = assay: as above; details: dose 6.3 g/a, three weeks after application
Summary of the method: as §2

common lambsquater [6] = assay: as above; details: dose 6.3 g/a, three weeks after application
Summary of the method: as §2

redroot pigweed [7] = assay: as above; details: dose 6.3 g/a, three weeks after application
Summary of the method: as §2

large crabgrass [8] = assay: as above; details: dose 6.3 g/a, three weeks after application
Summary of the method: as §2

beadstraw = assay: as above; details: dose 6.3 g/a, three weeks after application
Summary of the method: as §2

barnyardgrass [9] = assay: as above; details: dose 6.3 g/a, three weeks after application
Summary of the method: as §2

giant foxtail [10] = assay: as above; details: dose 6.3 g/a, three weeks after application
Summary of the method: as §2

water foxtail [11] = assay: as above; details: dose 6.3 g/a, three weeks after application
Summary of the method: as §2

wild oat [12] = assay: as above; details: dose 6.3 g/a, three weeks after application
Summary of the method: as §2

Italian ryegrass [13] = assay: as above; details: dose 6.3 g/a, three weeks after application
Summary of the method: as §2

ducksalad [14] = assay: Test Example 2: herbicidal effects during the vegetation period under submerged conditions; details: treatment during the vegetation period under submerged conditions; dose 2.52 g/a
Summary of the method: (§3)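 Barnyardgrass, bulrush and ducksalad were co-sown in alluvial soil flooded to 4 cm and grown in a greenhouse at 25 to 30° C. At the 1- or 2-leaf stage, water-diluted emulsifiable concentrates went onto the water surface at set doses (g/a). Herbicidal effect was scored three weeks later on a graded scale.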

bulrush [15] = assay: as above; details: treatment during the vegetation period under submerged conditions; dose 2.52 g/a
Summary of the method: as §3

barnyardgrass [16] = assay: as above; details: treatment during the vegetation period under submerged conditions; dose 2.52 g/a
Summary of the method: as §3

common ragweed [17] = assay: Test Example 3: herbicidal effects in soil treatment; details: dose 6.3 g/a
Summary of the method: (§4)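 Seeds were sown in sterilized diluvial soil and covered with about 1.5 cm of soil. Compounds, formulated as emulsifiable concentrates and diluted with water, were sprayed evenly over the soil surface at set doses in g/a. Herbicidal effect was scored on a rating scale three weeks later.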

common chickweed [18] = assay: as above; details: dose 6.3 g/a
Summary of the method: as §4

common lambsquater [19] = assay: as above; details: dose 6.3 g/a
Summary of the method: as §4

redroot pigweed [20] = assay: as above; details: dose 6.3 g/a
Summary of the method: as §4

large crabgrass [21] = assay: as above; details: dose 6.3 g/a
Summary of the method: as §4

barnyardgrass [22] = assay: as above; details: dose 6.3 g/a
Summary of the method: as §4

giant foxtail [23] = assay: as above; details: dose 6.3 g/a
Summary of the method: as §4

water foxtail [24] = assay: as above; details: dose 6.3 g/a
Summary of the method: as §4

wild oat [25] = assay: as above; details: dose 6.3 g/a
Summary of the method: as §4

Italian ryegrass [26] = assay: as above; details: dose 6.3 g/a
Summary of the method: as §4

| SMILES | C: ducksalad, herbicidal effect (evaluation scale 0-5) (ducksalad [1]) | B: bulrush, herbicidal effect (evaluation scale 0-5) (bulrush [2]) | A: barnyardgrass, herbicidal effect (evaluation scale 0-5) (barnyardgrass [3]) | J: common ragweed, herbicidal effect (common ragweed [4]) | N: common chickweed, herbicidal effect (common chickweed [5]) | L: common lambsquater, herbicidal effect (common lambsquater [6]) | K: redroot pigweed, herbicidal effect (redroot pigweed [7]) | D: large crabgrass, herbicidal effect (large crabgrass [8]) | O: beadstraw, herbicidal effect (beadstraw) | A: barnyardgrass, herbicidal effect (barnyardgrass [9]) | E: giant foxtail, herbicidal effect (giant foxtail [10]) | G: water foxtail, herbicidal effect (water foxtail [11]) | F: wild oat, herbicidal effect (wild oat [12]) | H: Italian ryegrass, herbicidal effect (Italian ryegrass [13]) | C: ducksalad, herbicidal effect (evaluation scale 0-5) (ducksalad [14]) | B: bulrush, herbicidal effect (evaluation scale 0-5) (bulrush [15]) | A: barnyardgrass, herbicidal effect (evaluation scale 0-5) (barnyardgrass [16]) | J: common ragweed, herbicidal effect (evaluation scale 0-5) (common ragweed [17]) | N: common chickweed, herbicidal effect (evaluation scale 0-5) (common chickweed [18]) | L: common lambsquater, herbicidal effect (evaluation scale 0-5) (common lambsquater [19]) | also measured |
| --- | --- | --- | --- | --- | --- | --- | --- | --- | --- | --- | --- | --- | --- | --- | --- | --- | --- | --- | --- | --- | --- |
| CC1(C)CC(=O)N(Cc2ccccc2NS(=O)(=O)C(F)(F)F)CO1 [II-17, 6,6-dimethyl-3-(2-trifluoromethanesulfonylaminobenzyl)-1,3-oxazinan-4-one] | 5 (mortality of 90% or above (nearly complete death)) | 5 (mortality of 90% or above (nearly complete death)) | 5 (mortality of 90% or above (nearly complete death)) | 5 (mortality of 90% or above (nearly complete death)) | 4 (mortality of at least 70% and less than 90%) | 4 (mortality of at least 70% and less than 90%) | 1 (mortality of at least 5% and less than 20%) | 5 (mortality of 90% or above (nearly complete death)) | 5 (mortality of 90% or above (nearly complete death)) | 5 (mortality of 90% or above (nearly complete death)) | 5 (mortality of 90% or above (nearly complete death)) | 5 (mortality of 90% or above (nearly complete death)) | 0 (mortality of less than 5% (almost ineffective)) | 4 (mortality of at least 70% and less than 90%) | 5 (mortality of 90% or above (nearly complete death)) | 5 (mortality of 90% or above (nearly complete death)) | 5 (mortality of 90% or above (nearly complete death)) | 5 (mortality of 90% or above (nearly complete death)) | 4 (mortality of at least 70% and less than 90%) | 2 (mortality of at least 20% and less than 40%) | K: redroot pigweed, herbicidal effect (evaluation scale 0-5) (redroot pigweed [20]): 1 (mortality of at least 5% and less than 20%); D: large crabgrass, herbicidal effect (evaluation scale 0-5) (large crabgrass [21]): 5 (mortality of 90% or above (nearly complete death)); A: barnyardgrass, herbicidal effect (evaluation scale 0-5) (barnyardgrass [22]): 5 (mortality of 90% or above (nearly complete death)); E: giant foxtail, herbicidal effect (evaluation scale 0-5) (giant foxtail [23]): 5 (mortality of 90% or above (nearly complete death)); G: water foxtail, herbicidal effect (evaluation scale 0-5) (water foxtail [24]): 5 (mortality of 90% or above (nearly complete death)); F: wild oat, herbicidal effect (evaluation scale 0-5) (wild oat [25]): 0 (mortality of less than 5% (almost ineffective)); H: Italian ryegrass, herbicidal effect (evaluation scale 0-5) (Italian ryegrass [26]): 4 (mortality of at least 70% and less than 90%) |
| CC1(C)CC(=O)N(Cc2ccccc2N(C(=O)C2CC2)S(=O)(=O)C(F)(F)F)CO1 [II-20] | 5 (mortality of 90% or above (nearly complete death)) | 5 (mortality of 90% or above (nearly complete death)) | 5 (mortality of 90% or above (nearly complete death)) | 5 (mortality of 90% or above (nearly complete death)) | 3 (mortality of at least 40% and less than 70%) | 0 (mortality of less than 5% (almost ineffective)) | 0 (mortality of less than 5% (almost ineffective)) | 5 (mortality of 90% or above (nearly complete death)) | 4 (mortality of at least 70% and less than 90%) | 5 (mortality of 90% or above (nearly complete death)) | 5 (mortality of 90% or above (nearly complete death)) | 5 (mortality of 90% or above (nearly complete death)) | 0 (mortality of less than 5% (almost ineffective)) | 4 (mortality of at least 70% and less than 90%) | 5 (mortality of 90% or above (nearly complete death)) | 5 (mortality of 90% or above (nearly complete death)) | 5 (mortality of 90% or above (nearly complete death)) | 4 (mortality of at least 70% and less than 90%) | 4 (mortality of at least 70% and less than 90%) | 0 (mortality of less than 5% (almost ineffective)) | K: redroot pigweed, herbicidal effect (evaluation scale 0-5) (redroot pigweed [20]): 0 (mortality of less than 5% (almost ineffective)); D: large crabgrass, herbicidal effect (evaluation scale 0-5) (large crabgrass [21]): 4 (mortality of at least 70% and less than 90%); A: barnyardgrass, herbicidal effect (evaluation scale 0-5) (barnyardgrass [22]): 5 (mortality of 90% or above (nearly complete death)); E: giant foxtail, herbicidal effect (evaluation scale 0-5) (giant foxtail [23]): 4 (mortality of at least 70% and less than 90%); G: water foxtail, herbicidal effect (evaluation scale 0-5) (water foxtail [24]): 5 (mortality of 90% or above (nearly complete death)); F: wild oat, herbicidal effect (evaluation scale 0-5) (wild oat [25]): 0 (mortality of less than 5% (almost ineffective)); H: Italian ryegrass, herbicidal effect (evaluation scale 0-5) (Italian ryegrass [26]): 5 (mortality of 90% or above (nearly complete death)) |

Reference: US20120029187A1, “HALOALKYLSULFONANILIDE DERIVATIVE” (Nissan Chemical Industries, Ltd., priority 2009, published 2012)
